Holding throughout (format): biochemical
For test [1], the target named is T1, JAK1 (Homo sapiens, UniProt P23458).
T1 construct: purchased Invitrogen
Briefly: JAK1 enzyme inhibition test (LANCE method). The note with it: 1 μM test compound; for inhibition at 1 µM: read-out: JAK1 enzyme inhibitory activity (%, 1 μM). In short, it runs like this:
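TR-FRET (LANCE) with ULight-JAK1 peptide (300 nM working solution) and ATP (150 μM working solution) in HEPES pH 7.5, MgCl2, EGTA, DTT buffer; 1 h at room temperature. EDTA stop plus Eu-anti-phosphotyrosine antibody, 665 nm read after 1 h. Inhibition relative to enzyme-free wells as 100%.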
A general note: TR-FRET usually uses a lanthanide donor and a delayed reading to cut background.

In test [2] the target is T2, JAK2 (Homo sapiens, UniProt O60674).
T2 construct: purchased Invitrogen
As to the kind of experiment: JAK2 enzyme inhibition test (LANCE method). The note with it: 1 μM test compound; for inhibition at 1 µM: read-out: JAK2 enzyme inhibitory activity (%, 1 μM). In short, it runs like this: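 Recombinant JAK2 (6 ng/mL solution) phosphorylated ULight-JAK1 peptide (300 nM solution) with ATP (45 μM solution) in pH 7.5 HEPES/MgCl2/DTT buffer for 1 hr at room temperature. After EDTA stop and europium anti-phosphotyrosine antibody for 1 hr, TR-FRET read at 665 nm; inhibition relative to enzyme-free wells as 100%.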

Test [3] has as its target T3, JAK3 (Homo sapiens, UniProt P52333).
T3 construct: purchased Invitrogen
T3 sequence (P52333 1-1124): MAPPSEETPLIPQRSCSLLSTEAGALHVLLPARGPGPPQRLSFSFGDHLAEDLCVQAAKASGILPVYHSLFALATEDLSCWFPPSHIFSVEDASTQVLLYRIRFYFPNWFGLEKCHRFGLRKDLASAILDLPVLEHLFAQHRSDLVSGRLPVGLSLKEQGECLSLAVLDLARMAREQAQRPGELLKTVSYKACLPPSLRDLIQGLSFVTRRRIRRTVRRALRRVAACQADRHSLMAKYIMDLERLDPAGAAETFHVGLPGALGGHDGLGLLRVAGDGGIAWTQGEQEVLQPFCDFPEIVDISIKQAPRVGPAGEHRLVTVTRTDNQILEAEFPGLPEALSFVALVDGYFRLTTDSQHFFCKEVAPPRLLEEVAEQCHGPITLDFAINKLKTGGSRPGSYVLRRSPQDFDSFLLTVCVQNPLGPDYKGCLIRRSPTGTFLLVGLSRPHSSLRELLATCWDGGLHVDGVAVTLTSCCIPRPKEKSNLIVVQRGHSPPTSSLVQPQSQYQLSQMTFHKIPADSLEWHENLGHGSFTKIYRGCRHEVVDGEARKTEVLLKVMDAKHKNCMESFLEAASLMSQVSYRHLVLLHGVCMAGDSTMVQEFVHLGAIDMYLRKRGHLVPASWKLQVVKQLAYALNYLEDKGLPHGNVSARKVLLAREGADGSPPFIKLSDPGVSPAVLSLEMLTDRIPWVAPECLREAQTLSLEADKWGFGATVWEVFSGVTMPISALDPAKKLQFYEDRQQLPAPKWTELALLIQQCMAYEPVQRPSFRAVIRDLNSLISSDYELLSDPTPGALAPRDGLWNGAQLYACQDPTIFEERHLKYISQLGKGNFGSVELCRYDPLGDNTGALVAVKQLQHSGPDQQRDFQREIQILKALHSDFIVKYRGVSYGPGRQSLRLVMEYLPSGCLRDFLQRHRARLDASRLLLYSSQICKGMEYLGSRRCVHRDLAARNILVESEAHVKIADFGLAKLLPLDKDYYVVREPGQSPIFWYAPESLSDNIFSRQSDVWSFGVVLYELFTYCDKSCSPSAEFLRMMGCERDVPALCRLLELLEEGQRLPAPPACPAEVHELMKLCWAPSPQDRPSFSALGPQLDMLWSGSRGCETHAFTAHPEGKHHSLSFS
Briefly: JAK3 enzyme inhibition test (LANCE method). The following applies: 1 μM test compound; for inhibition at 1 µM: read-out: JAK3 enzyme inhibitory activity (%, 1 μM). The method, boiled down: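 Recombinant JAK3 (12 ng/mL solution) with ULight-JAK1 peptide (300 nM solution) and ATP (15 μM solution) in HEPES pH 7.5 buffer, 1 h at room temperature. EDTA stop with Eu-anti-phosphotyrosine antibody; TR-FRET at 665 nm. Inhibition relative to enzyme-free wells as 100%.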

Test [4] deals with T4, TYK2 (Homo sapiens, UniProt P29597).
T4 construct: purchased Invitrogen
As to the kind of experiment: TYK2 enzyme inhibition test (LANCE method). The following applies: 1 μM test compound; for inhibition at 1 µM: read-out: TYK2 enzyme inhibitory activity (%, 1 μM). In short, it runs like this:
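Recombinant TYK2 (375 ng/mL working solution) with ULight-JAK1 peptide (300 nM working solution) and ATP (30 μM working solution) in HEPES pH 7.5 buffer with MgCl2, EGTA, DTT, Tween20, BSA, reacted 1 h at RT. EDTA-stopped, Eu-anti-phosphotyrosine TR-FRET read at 665 nm; inhibition relative to enzyme-free wells as 100%.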

T2 sequence (O60674 whole entry): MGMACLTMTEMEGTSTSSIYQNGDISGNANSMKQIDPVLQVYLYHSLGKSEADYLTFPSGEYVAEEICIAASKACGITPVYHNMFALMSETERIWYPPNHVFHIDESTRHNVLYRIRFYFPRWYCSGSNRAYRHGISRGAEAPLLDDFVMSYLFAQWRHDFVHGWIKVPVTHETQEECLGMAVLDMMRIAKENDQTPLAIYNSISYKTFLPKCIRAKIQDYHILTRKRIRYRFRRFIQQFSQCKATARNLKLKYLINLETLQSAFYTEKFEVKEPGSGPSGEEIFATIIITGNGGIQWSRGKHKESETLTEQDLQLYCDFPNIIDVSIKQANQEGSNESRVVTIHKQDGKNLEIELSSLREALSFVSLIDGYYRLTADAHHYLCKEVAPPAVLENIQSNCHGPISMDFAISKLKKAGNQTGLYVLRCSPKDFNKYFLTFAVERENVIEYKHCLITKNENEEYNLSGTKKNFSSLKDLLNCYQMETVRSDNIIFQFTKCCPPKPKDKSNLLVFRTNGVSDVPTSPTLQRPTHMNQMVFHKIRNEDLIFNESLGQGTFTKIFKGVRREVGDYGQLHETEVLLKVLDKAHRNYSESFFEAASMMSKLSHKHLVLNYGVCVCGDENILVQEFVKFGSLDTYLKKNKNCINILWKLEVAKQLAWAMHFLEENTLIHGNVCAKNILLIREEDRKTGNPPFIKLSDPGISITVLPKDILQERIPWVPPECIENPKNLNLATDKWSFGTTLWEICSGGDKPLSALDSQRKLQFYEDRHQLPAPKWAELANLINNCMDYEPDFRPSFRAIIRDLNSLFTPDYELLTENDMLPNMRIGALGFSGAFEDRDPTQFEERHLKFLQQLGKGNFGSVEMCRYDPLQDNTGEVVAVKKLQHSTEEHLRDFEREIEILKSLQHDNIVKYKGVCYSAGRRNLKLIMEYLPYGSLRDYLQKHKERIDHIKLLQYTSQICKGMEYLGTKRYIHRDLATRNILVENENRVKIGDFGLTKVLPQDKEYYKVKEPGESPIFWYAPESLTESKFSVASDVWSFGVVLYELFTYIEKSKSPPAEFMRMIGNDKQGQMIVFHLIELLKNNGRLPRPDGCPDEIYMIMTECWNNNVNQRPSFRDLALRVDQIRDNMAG
T4 sequence (P29597 whole entry): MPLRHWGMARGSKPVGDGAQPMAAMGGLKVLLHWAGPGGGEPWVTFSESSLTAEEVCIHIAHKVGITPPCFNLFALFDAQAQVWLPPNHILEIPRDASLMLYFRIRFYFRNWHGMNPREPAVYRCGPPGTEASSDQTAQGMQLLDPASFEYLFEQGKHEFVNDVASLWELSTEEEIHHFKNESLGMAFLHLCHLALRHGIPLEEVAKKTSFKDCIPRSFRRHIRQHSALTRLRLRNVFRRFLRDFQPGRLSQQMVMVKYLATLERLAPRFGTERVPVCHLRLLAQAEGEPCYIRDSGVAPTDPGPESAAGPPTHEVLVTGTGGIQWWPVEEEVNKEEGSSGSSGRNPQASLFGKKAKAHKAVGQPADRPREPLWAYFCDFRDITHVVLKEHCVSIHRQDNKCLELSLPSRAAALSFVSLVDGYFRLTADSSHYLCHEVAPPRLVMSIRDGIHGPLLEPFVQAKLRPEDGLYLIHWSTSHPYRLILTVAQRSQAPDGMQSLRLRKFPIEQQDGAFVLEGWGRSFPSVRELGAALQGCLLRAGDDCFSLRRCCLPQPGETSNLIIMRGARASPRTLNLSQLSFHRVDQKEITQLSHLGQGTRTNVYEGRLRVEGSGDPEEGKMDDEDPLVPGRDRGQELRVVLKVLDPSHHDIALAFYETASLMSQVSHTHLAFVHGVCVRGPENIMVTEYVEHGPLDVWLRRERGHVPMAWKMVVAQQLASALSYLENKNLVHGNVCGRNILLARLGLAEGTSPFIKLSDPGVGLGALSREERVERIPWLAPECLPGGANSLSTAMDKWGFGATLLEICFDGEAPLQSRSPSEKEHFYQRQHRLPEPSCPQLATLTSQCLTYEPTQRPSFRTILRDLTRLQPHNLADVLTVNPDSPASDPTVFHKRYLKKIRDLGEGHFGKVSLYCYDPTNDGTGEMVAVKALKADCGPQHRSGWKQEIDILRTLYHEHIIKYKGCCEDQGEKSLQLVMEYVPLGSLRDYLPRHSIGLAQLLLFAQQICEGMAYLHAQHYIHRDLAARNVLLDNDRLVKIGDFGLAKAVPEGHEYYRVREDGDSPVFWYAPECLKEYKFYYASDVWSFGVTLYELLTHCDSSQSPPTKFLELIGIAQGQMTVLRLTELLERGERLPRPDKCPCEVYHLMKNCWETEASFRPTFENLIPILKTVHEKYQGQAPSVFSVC
T1 sequence (P23458 whole entry): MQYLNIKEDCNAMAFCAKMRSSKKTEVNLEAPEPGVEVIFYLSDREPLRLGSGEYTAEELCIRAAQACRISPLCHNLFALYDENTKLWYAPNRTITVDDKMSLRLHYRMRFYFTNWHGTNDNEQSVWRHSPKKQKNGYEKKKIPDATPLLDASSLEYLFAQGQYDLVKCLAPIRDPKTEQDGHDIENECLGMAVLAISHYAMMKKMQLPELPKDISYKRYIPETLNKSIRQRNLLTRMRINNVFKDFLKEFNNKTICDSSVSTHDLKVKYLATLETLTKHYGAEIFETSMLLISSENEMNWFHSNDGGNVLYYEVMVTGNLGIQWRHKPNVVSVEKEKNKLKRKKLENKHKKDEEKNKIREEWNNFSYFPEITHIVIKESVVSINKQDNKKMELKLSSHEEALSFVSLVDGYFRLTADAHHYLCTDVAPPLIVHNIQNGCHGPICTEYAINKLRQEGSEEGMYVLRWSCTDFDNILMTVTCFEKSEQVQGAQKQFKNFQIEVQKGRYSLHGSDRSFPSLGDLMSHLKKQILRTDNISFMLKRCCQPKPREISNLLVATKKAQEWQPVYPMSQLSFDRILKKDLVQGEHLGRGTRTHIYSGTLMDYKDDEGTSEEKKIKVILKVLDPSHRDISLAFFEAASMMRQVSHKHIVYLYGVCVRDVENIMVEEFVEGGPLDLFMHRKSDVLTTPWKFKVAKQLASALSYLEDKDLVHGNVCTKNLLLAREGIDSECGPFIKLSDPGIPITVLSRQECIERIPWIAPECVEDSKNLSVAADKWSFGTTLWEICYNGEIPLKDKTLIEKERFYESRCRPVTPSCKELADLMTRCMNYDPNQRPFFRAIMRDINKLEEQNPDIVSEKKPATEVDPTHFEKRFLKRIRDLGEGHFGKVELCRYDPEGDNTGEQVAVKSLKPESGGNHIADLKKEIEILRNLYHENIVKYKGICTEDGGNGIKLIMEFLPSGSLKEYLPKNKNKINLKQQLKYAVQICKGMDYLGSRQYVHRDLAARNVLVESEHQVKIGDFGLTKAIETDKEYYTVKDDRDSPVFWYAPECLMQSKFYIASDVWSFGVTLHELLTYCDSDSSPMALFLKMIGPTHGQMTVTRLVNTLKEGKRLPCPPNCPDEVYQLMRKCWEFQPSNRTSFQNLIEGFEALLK

Take `CCn1nc(-c2cn([C@@H](C)C(C)C)c(=O)c3c(N)n[nH]c23)cc1N1CCS(=O)(=O)CC1` [Example 28, 3-amino-7-(5-(1,1-dioxidothiomorpholin-4-yl)-1-ethyl-1H-pyrazol-3-yl)-5-((2S)-3-methylbutan-2-yl)-1,5-dihydro-4H-pyrazolo[4,3-c]pyridin-4-one]: the inhibition at 1 µM came out at 78% in test [1], 90% in test [2], 95% in test [3] and 98% in test [4].

With `CC(C)[C@H](C)n1cc(-c2cc(N3CCC[C@H]3CO)n(C)n2)c2[nH]nc(N)c2c1=O` [Example 20, 3-amino-7-(5-((2S)-2-(hydroxymethyl)pyrrolidin-1-yl)-1-methyl-1H-pyrazol-3-yl)-5-((2S)-3-methylbutan-2-yl)-1,5-dihydro-4H-pyrazolo[4,3-c]pyridin-4-one], the inhibition at 1 µM was found to be 95% in test [1], 98% in test [2], 100% in test [3] and 99% in test [4].

On to `COC1(c2cc(-c3cn([C@@H](C)C(C)C)c(=O)c4c(N)n[nH]c34)nn2C)CN(C(=O)C(C)C)C1` [Example 111, 3-amino-7-(5-(1-isobutyryl-3-methoxyazetidin-3-yl)-1-methyl-1H-pyrazol-3-yl)-5-((2S)-3-methylbutan-2-yl)-1,5-dihydro-4H-pyrazolo[4,3-c]pyridin-4-one], for which the inhibition at 1 µM in test [1] is 83%; in test [2], 97%; in test [3], 98%; in test [4], 100%.

Turning to `Cn1nc(-c2cn(C3CCCC3(C)C)c(=O)c3c(N)n[nH]c23)cc1CN1CCS(=O)(=O)CC1` (stereo not shown) [Example 74, 3-amino-5-(2,2-dimethylcyclopentyl)-7-(5-((1,1-dioxidothiomorpholin-4-yl)methyl)-1-methyl-1H-pyrazol-3-yl)-1,5-dihydro-4H-pyrazolo[4,3-c]pyridin-4-one], the “JAK1 enzyme inhibitory activity (%, 1 μM)” value in test [1] was 98%. In addition, the values for the inhibition at 1 µM in test [2], in test [3] and in test [4] were 100%, 99% and 99%, respectively.

Take `C[C@@H](C1CC1)n1cc(-c2cc(C(C)(C)O)n(C)n2)c2[nH]nc(N)c2c1=O` [Example 7, 3-amino-5-((1S)-1-cyclopropylethyl)-7-(5-(2-hydroxypropan-2-yl)-1-methyl-1H-pyrazol-3-yl)-1,5-dihydro-4H-pyrazolo[4,3-c]pyridin-4-one]: the inhibition at 1 µM came out at 100% in test [1], 100% in test [2], 100% in test [3] and 99% in test [4].

Regarding `CC(C)[C@H](C)n1cc(-c2cc(C(C)(C)C(=O)N(C)C)n(C)n2)c2[nH]nc(N)c2c1=O` [Example 56, 2-(3-(3-amino-5-((2S)-3-methylbutan-2-yl)-4-oxo-4,5-dihydro-1H-pyrazolo[4,3-c]pyridin-7-yl)-1-methyl-1H-pyrazol-5-yl)-N,N,2-trimethylpropanamide], the inhibition at 1 µM in test [1] was determined as 70%; in test [2], 94%; in test [3], 94%; in test [4] it was 98%.

With `CC(C)[C@H](C)n1cc(-c2cc(N3CCC(C)(O)C3)n(C)n2)c2[nH]nc(N)c2c1=O` (stereo partly drawn) [Example 33, 3-amino-7-(5-(3-hydroxy-3-methylpyrrolidin-1-yl)-1-methyl-1H-pyrazol-3-yl)-5-((2S)-3-methylbutan-2-yl)-1,5-dihydro-4H-pyrazolo[4,3-c]pyridin-4-one], the inhibition at 1 µM turned out to be 96% in test [1], 98% in test [2], 99% in test [3] and 99% in test [4].

For `Cn1nc(-c2cn(C(C3CC3)C3CC3)c(=O)c3c(N)n[nH]c23)cc1C1CC1` [Example 161, 3-amino-7-(5-cyclopropyl-1-methyl-1H-pyrazol-3-yl)-5-(dicyclopropylmethyl)-1,5-dihydro-4H-pyrazolo[4,3-c]pyridin-4-one], the inhibition at 1 µM in test [1] was determined as 100%; in test [2], 99%; in test [3] it was 100%; in test [4], 100%.

On to `CC(C)[C@H](C)n1cc(-c2cc(CN3CCCC3=O)n(C)n2)c2[nH]nc(N)c2c1=O` [Example 52, 3-amino-5-((2S)-3-methylbutan-2-yl)-7-(1-methyl-5-((2-oxopyrrolidin-1-yl)methyl)-1H-pyrazol-3-yl)-1,5-dihydro-4H-pyrazolo[4,3-c]pyridin-4-one], for which the inhibition at 1 µM in test [1] was 96%; in test [2], 99%; in test [3], 99%; in test [4], 100%.

As to `Cn1nc(-c2cn(C(C3CC3)C3CC3)c(=O)c3c(N)n[nH]c23)cc1N1CCC[C@H]1CO` [Example 168, 3-amino-5-(dicyclopropylmethyl)-7-(5-((2S)-2-(hydroxymethyl)pyrrolidin-1-yl)-1-methyl-1H-pyrazol-3-yl)-1,5-dihydro-4H-pyrazolo[4,3-c]pyridin-4-one], the inhibition at 1 µM in test [1] turned out to be 98%; in test [2], 94%; in test [3] it was 100%; in test [4], 101%.

Regarding `CC(C)[C@H](C)n1cc(-c2cc(C(C)(C)C#N)n(C)n2)c2[nH]nc(N)c2c1=O` [Example 57, 2-(3-(3-amino-5-((2S)-3-methylbutan-2-yl)-4-oxo-4,5-dihydro-1H-pyrazolo[4,3-c]pyridin-7-yl)-1-methyl-1H-pyrazol-5-yl)-2-methylpropanenitrile], the inhibition at 1 µM in test [1], in test [2], in test [3] and in test [4] was 99% throughout.

For `CC1CN(c2cc(-c3cn([C@@H](C)C(C)C)c(=O)c4c(N)n[nH]c34)nn2C)CCO1` (stereo partly drawn) [Example 60, 3-amino-5-((2S)-3-methylbutan-2-yl)-7-(1-methyl-5-(2-methylmorpholin-4-yl)-1H-pyrazol-3-yl)-1,5-dihydro-4H-pyrazolo[4,3-c]pyridin-4-one], the “JAK1 enzyme inhibitory activity (%, 1 μM)” value in test [1] was found to be 96%. Also, the “JAK2 enzyme inhibitory activity (%, 1 μM)” value in test [2] is 98%. Besides, the “JAK3 enzyme inhibitory activity (%, 1 μM)” value in test [3] is on record as 99%. Also, the “TYK2 enzyme inhibitory activity (%, 1 μM)” value in test [4] (1 µM) turned out to be 99%.

For the compound `CC(C)[C@H](C)n1cc(-c2cc(N3CCN(S(=O)(=O)C(C)C)CC3)n(C)n2)c2[nH]nc(N)c2c1=O` [Example 102, 3-amino-7-(5-(4-(isopropylsulfonyl)piperazin-1-yl)-1-methyl-1H-pyrazol-3-yl)-5-((2S)-3-methylbutan-2-yl)-1,5-dihydro-4H-pyrazolo[4,3-c]pyridin-4-one], the inhibition at 1 µM worked out at 97% in test [1], 98% in test [2], 99% in test [3] and 100% in test [4].
